Assay [1] concerns AGS gastric cancer cells. As to the kind of experiment: Zebrafish xenograft gastric cancer model (AGS). Format: in vivo. The procedure: Transgenic Tg(fli1:EGFP)y1 zebrafish embryos were cultured in E3 embryo medium with 0.2 mM 1-phenyl-2-thiourea (PTU) at 28 °C for 48 hours. HCC70 breast cancer cells were cultured using RPMI-1640 medium supplemented with 10 % FBS, and AGS gastric cancer cells were cultured using F-12K medium supplemented with 10 % FBS. Each cell was collected, labeled with Dil red fluorescent dye, and then subcutaneously transplanted into 2-day-old zebrafish embryos. After selecting embryos with tumors, they were classified into experimental groups (20 embryos per group), and each Example compound dissolved and diluted in DMSO across 2 to 3 concentration ranges, a DMSO control group, or a comparative compound were added, followed by incubation at 35.5 °C for 48 hours or 72 hours. In the breast cancer model, primary tumors were collected immediately after transplantation (Day 0) and after 48 hours (Day 2), and in the gastric cancer model, primary tumors were obtained immediately after transplantation (Day 0) and after 72 hours (Day 3). Images of the collected tumors were analyzed for reduction in tumor size compared to the DMSO control group using image software, and the number of disseminated cancer cells after 3 days was manually counted through the captured images, with the results shown in FIGs. 6, 7, and 8. […]

For assay [2], the system named is NCI-H23. The experiment in a line: Lung cancer cell proliferation inhibitory activity, NCI-H23. The note with it: Homo sapiens, 72 hours, Cell Counting Kit-8, relative IC50. Format: cell-based. As to the method: (§1) Experiments were performed using three types of lung cancer cell lines to measure the cell proliferation inhibitory ability of the compounds of the present invention. NCI-H23 and NCI-H358 cells were dispensed into a 96-well plate at 100 µL of cell suspension per well using RPM11640 medium containing 10 % FBS and 1 % PS, followed by incubation in a cell incubator at 37 °C and 5 % CO2. A427 cells were dispensed into a 96-well plate at 100 µL of cell suspension per well using DMEM medium containing 10 % FBS and 1 % PS, followed by incubation in a cell incubator at 37 °C and 5 % CO2. The next day, each Example compound (such as Example 8) dissolved and diluted in DMSO across 10 concentration ranges and a DMSO control group were treated on the cells for 72 hours. After completion of the compound treatment, 10 µL of Cell Counting Kit-8 (Dojindo) reagent was added to each well of the 96-well plate, followed by incubation for 2 hours. After inserting the 96-well plate into an Envision plate reader […], luminescence signals were measured. Relative IC50 values were calculated by fitting a dose-response curve using Graphpad PRISM software.
(§2) The lung cancer cell proliferation inhibitory activities of the Example compounds measured by the method described above were evaluated according to the following criteria, and the results are presented in Table 17.

In assay [3] the test system is NCI-H358 cells. The experiment in a line: Lung cancer cell proliferation inhibitory activity, NCI-H358. The note with it: Homo sapiens, 72 hours, Cell Counting Kit-8, relative IC50. The class given is cell-based. The procedure: as §1, §2
Assay [4] relates to A427 cells. As to the kind of experiment: Lung cancer cell proliferation inhibitory activity, A427. The note with it: Homo sapiens, A-427; 72 hours, Cell Counting Kit-8, relative IC50. The class given is cell-based. As to the method:
as §1, §2

The subject of assay [5] is Gemcitabine resistant-MIA-PaCa2 cells. The experiment in a line: Pancreatic cancer cell proliferation inhibitory activity, Gemcitabine resistant-MIA-PaCa2. The class given is cell-based. The note with it: 72 hours, Cell Counting Kit-8, relative IC50. The procedure: Experiments were performed using three types of pancreatic cancer cell lines to measure the cell proliferation inhibitory ability of the compounds of the present invention. AsPC-1, MIA-PaCa2-Control, and Gemcitabine resistant-MIA-PaCa2 cells were dispensed into a 96-well plate at 100 uL of cell suspension per well using DMEM medium containing 10 % FBS and 1 % PS, followed by incubation in a cell incubator at 37 °C and 5 % CO2. The next day, the compound of Example 8 dissolved and diluted in DMSO across 10 concentration ranges and a DMSO control group were treated on the cells for 72 hours. After completion of the compound treatment, 10 µL of Cell Counting Kit-8 (Dojindo) reagent was added to each well of the 96-well plate, followed by incubation for 2 hours. […] were measured after inserting the 96-well plate into an Envision plate reader […]. Relative IC50 values were calculated by fitting a dose-response curve using Graphpad PRISM software.
The pancreatic cancer cell proliferation inhibitory activities of the Example compounds measured by the method described above were evaluated according to the following criteria, and the results are presented in Table 18.

Assay [6] has as its system SNU601. As to the kind of experiment: Gastric cancer cell proliferation inhibitory activity (Cell Counting Kit-8), SNU601. Format: cell-based. The note with it: SNU-601; 72 hours, Cell Counting Kit-8, relative IC50. The procedure: Experiments were performed using six types of gastric cancer cell lines to measure the cell proliferation inhibitory ability of each Example compound. NCI-N87, SNU601, KATO-III, MKN1, and AGS cells were dispensed into a 96-well plate at 100 µL of cell suspension per well using RPMI1640 medium containing 10 % FBS and 1 % PS, followed by incubation in a cell incubator at 37 °C and 5 % CO2. HS746T cells were dispensed into a 96-well plate at 100 µL of cell suspension per well using DMEM medium containing 10 % FBS and 1 % PS, followed by incubation in a cell incubator at 37 °C and 5 % CO2. The next day, each Example compound dissolved and diluted in DMSO across 10 concentration ranges and a DMSO control group were treated on the cells for 72 hours. After completion of the compound treatment, 10 µL of Cell Counting Kit-8 (Dojindo) reagent was added to each well of the 96-well plate, followed by incubation for 2 hours. […] were measured after inserting the 96-well plate into an Envision plate reader […]. Relative IC50 values were calculated by fitting a dose-response curve using Graphpad PRISM software.
The gastric cancer cell proliferation inhibitory activities of the Example compounds measured by the method described above were evaluated according to the following criteria, and the results are presented in Table 20.

With `CN1CCN(c2cc(NCc3nc4ccc(F)c(F)c4[nH]3)c3ncc(C(F)(F)F)n3n2)CC1` [Example 8, N-((6,7-difluoro-1H-benzo[d]imidazol-2-yl)methyl)-6-(4-methylpiperazin-1-yl)-3-(trifluoromethyl)imidazo[1,2-b]pyridazin-8-amine], in assay [1] (0.1 µM, compared to 1 mM of 5-FU, FIG. 8), the “number of metastatic gastric cancer cells” value is recorded as “significant reduction in the number of metastatic gastric cancer cells”. Besides, the “reduction in tumor size” value in assay [1] (72 hours, compared to the vehicle, FIG. 7) is reported as “dose-dependent reduction in tumor size”. In addition, the IC50 in assay [2], in assay [3], in assay [4], in assay [5] and in assay [6] was at most 200 nM in each case.

Values taken from patent EP4813991A1 (iLeadBMS Co., Ltd., priority 2023, dated 2025).
